Test results as given in patent US20070202047A1, “Polyamine-substituted ligands for use as contrast agents” (priority 2006, published 2007).

Key:
[1] = system: subcutaneous MH3924A tumor; assay: MRI of ACI rats bearing a subcutaneous MH3924A tumor; type: in vivo, rat; settings: 0.1 mmol/kg i.v., 2.35 T
Description: Animal models. For in vivo tumor studies 2×10^6 MH3924A tumor cells were injected subcutaneously into the right thigh of male ACI rats (Charles River, Sulzfeld, Germany) weighing 220 to 260 g. All animal experiments were performed in compliance with the German Animal Protection Laws (Permission 35-9185.81/G-7-03, Reg.-Praesidium, Karlsruhe, Germany).
MRI. At 25 days after inoculation, when tumors had reached a diameter of ca. 10-15 mm, the MR imaging experiments were initiated. ACI rats were anesthetized by intravenous injection of ketamin (Ketanest®, 0.1 mg/g body wt.; Parke-Davis, Berlin, Germany). Then a dose of 0.1 mmol/kg Magnevist® or Gadovist® (Schering, Berlin, Germany) or one of the synthesized agents Gd-3.1., Gd-5.1. or Gd-6.1. was injected intravenously into a lateral tail vein. For one experiment a higher dose (0.36 mmol/kg) of Magnevist® was used. Individual rats were examined by MRI at 1 h and 24 h post Gd, in the case of Magnevist® also at ca. 15 min post Gd. Proton imaging studies were performed at 2.35 T (100.3 MHz) with a Biospec 24/40 instrument (Bruker BioSpin MRI, Ettlingen, Germany). […] Two transaxial multislice imaging protocols were applied with a field of view of 70×70 mm, 128 time-domain data points, 96 phase-encoding steps, and 16 slices of 2 mm thickness. A multi-spin-echo sequence was used for proton-density and T2-weighted images (repetition time TR=2 s, 12 echoes with echo times TE of 8, 16, 24, . . . 96 ms, number of averages=1), and a spoiled gradient-echo sequence was used for T1-weighted imaging (TR=212 ms, TE=5 ms, flip angle=60°, number of averages=3). The data were Fourier transformed to give a 128×128 image matrix with 0.55 mm pixel resolution. Analogous T1-weighted images with coronal slices were acquired with a field of view of 80×80 mm and 3-mm slice thickness.
Imaging viewing, ROI analysis and export of TIFF files was performed with the freeware MRIcro from Chris Rorden (http://people.cas.sc.edu/rorden/mricro.html).

[2] = Relaxivity measurements in PBS solution; type: physicochemical; settings: 37° C.; for longitudinal relaxation rate R1(Gd): 250 MHz (5.4 T); for molar chemical shift Δδ(Gd): H2O signal relative to external HDO; for molar chemical shift Δδ(Gd) / molar relaxivity r1: 250 MHz; for molar relaxivity r1: PBS
Description: Relaxivity Measurements. A phosphate-buffered saline (PBS, pH 7.4) reference solution and solutions of the Gd complexes Gd-3.1. (60 mM), Gd-5.1. (60 mM), and Gd-6.1. […] Each capillary was then inserted into a standard 5-mm NMR tube containing D2O (99.96% D) for ^1H relaxation rate measurements at 250 MHz (5.4 T, Bruker AC-250 spectrometer) and 37° C. using the inversion-recovery method. The relaxation rates R1 were determined by a three-parameter nonlinear least-squares fit of the intensity data to the equation M(τ)=M0[1−2q exp(−R1τ)] with 8-11 τ values. The transverse relaxation rate R2 was estimated from the H2O signal linewidth Δν at half height (R2=πΔν). The standard error of estimate for R1 was <0.7% for all samples. The relaxivities were estimated as r1 [s^−1 mM^−1]=[R1(Gd)−R1(0)]/[Gd], where [Gd] is the concentration of Gd complex in the sample with relaxation rate R1(Gd), and R1(0) is the rate for the reference sample of PBS. Analogous calculations were made for r2 from R2.
For the ^1H relaxation rate measurements at 250 MHz (5.4 T, Bruker AC-250 spectrometer) and 37° C., sample temperature was regulated to better than ±0.1° C. using the variable temperature unit of the spectrometer. The solutions studied were placed in capillaries to reduce the sample volume and the resulting intensity of the H2O signal, thus avoiding the influences of radiation damping on the relaxation behavior. The D2O solution added to the 5-mm NMR tube provided a field/frequency lock signal and residual HDO as a reference signal. An inversion-recovery pulse sequence (RD-180°-τ-90°-acquisition) was executed with a composite 180° pulse of constant phase, four-step phase cycling of the 90° pulse (7.3 μs) for four transients, and 8-11 τ values. For each sample the list of τ values was chosen after determining the approximate τnull for the “null” point of the recovery curve by trial measurements, and the delay RD was set to at least 10τnull. The resulting spectra were phase and baseline corrected manually, and the H2O signal intensity was determined by the peak picking algorithm of the NMR software.
The relaxation rates R1 were determined by a three-parameter nonlinear least-squares fit of the intensity data to the equation M(τ)=M0[1−2q exp(−R1τ)], where q was an additional fitting parameter used to account for the quality of spin inversion. The theoretical value of q is 1.0, and the fitted values were in the range 0.92-0.95. The transverse relaxation rate R2 was estimated from the H2O signal linewidth Δν at half height (R2=πΔν), and the chemical shift Δδ(Gd) of the H2O signal from the capillary relative to the HDO signal from the external D2O was determined as an additional measure of the paramagnetism of the Gd complex. The standard error of estimate for R1was <0.7% for all samples. The relaxivities were estimated as r1 […]=[R1(Gd)−R1(0)]/[Gd], where [Gd] is the concentration of Gd complex in the sample with relaxation rate R1(Gd), and R1(0) is the rate for the reference sample of PBS. Analogous calculations were made for r2 from R2 and for Δδ(Gd).

[3] = molecular target: T1, human serum albumin (Homo sapiens, UniProt P02768); assay: Serum albumin binding (ultrafiltration, ICP-MS); type: in vitro ADME; settings: 20 μM complex, 40 g/L HSA, 37° C.; for binding of complex to human serum albumin: 30 or 90 min
T1 construct: purchased Behring, Bern, Switzerland
T1 sequence (P02768 25-609): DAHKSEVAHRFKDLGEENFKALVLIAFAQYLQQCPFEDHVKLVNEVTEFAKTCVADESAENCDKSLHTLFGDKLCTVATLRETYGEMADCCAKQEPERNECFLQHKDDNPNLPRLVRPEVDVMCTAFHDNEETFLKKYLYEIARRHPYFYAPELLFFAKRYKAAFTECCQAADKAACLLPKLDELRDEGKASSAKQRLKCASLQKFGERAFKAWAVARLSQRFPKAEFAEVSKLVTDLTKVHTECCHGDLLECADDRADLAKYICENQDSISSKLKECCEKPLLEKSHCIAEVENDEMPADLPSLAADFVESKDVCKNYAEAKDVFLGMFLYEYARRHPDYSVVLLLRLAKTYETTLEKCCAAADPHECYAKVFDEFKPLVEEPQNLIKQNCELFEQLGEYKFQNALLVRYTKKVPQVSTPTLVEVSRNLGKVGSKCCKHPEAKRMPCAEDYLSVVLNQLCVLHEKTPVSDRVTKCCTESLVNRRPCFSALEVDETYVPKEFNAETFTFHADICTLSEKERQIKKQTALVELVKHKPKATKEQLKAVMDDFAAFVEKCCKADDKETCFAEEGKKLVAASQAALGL
Description: Serum albumin binding. Solutions containing 20 μM Gd-3.1., Gd-5.1. or Gd-6.1. and 40 g/L human serum albumin (Behring, Bern, Switzerland) were incubated at 37° C. for 30 or 90 min. The solutions were subjected to ultrafiltration (filter cutoff 20 kD; Sartorius, Göttingen, Germany), and the amount of unbound complex was determined in the ultrafiltrate with ICP-MS (n=2).
HSA Binding: 20 μM solutions of the complexes were incubated at 37° C. for 30 and 90 minutes in a solution of 40 g HSA/L (Behring, Bern; Switzerland). The amount of unbound complex was determined in ultrafiltrates with ICP-MS.

SMILES	contrast ratio tumor vs. muscle tissue, T1 weighting ([1]; 1 h post Gd)	contrast ratio tumor vs. muscle tissue, T1 weighting ([1]; 24 h post Gd)	longitudinal relaxation rate R1(Gd) ([2]; 60 mM in PBS) [s⁻¹]	molar chemical shift Δδ(Gd) [2] [ppm mM-^−1]	molar relaxivity r1 [2] [s⁻¹ mM⁻¹]	binding of complex to human serum albumin [3]	complex found to be free (unbound) ([3]; ultrafiltrate) [%]	longitudinal relaxation rate R1(Gd) ([2]; 30 mM in PBS) [s⁻¹]
CCN(CC)CCNC(=O)CN(CCN(CCN(CC(=O)[O-])CC(=O)N(CCN)CCN)CC(=O)[O-])CC(=O)[O-].[Gd+3] [Gd-3.1]	1.22	1.11	469 ± 2	0.125	7.8	no significant binding of complex to protein	93±6	–
NCCN(CCN)C(=O)CN(CCN(CCN(CC(=O)[O-])CC(=O)N(CCN)CCN)CC(=O)[O-])CC(=O)[O-].[Gd+3] [Gd-5.1]	1.11	1.08	137.9 ± 0.2	0.045	2.3	no significant binding of complex to protein	–	–
NCCCCN(CCCN)C(=O)CN(CCN(CCN(CC(=O)[O-])CC(=O)N(CCCN)CCCCN)CC(=O)[O-])CC(=O)[O-].[Gd+3] [Gd-6.1]	1.49	1.21	–	0.161	6.5	no significant binding of complex to protein	–	194.5 ± 0.9
